According to PMC5114727, “Biological characterization of chemically diverse compounds targeting the Plasmodium falciparum coenzyme A synthesis pathway” (Parasites & Vectors, 2016):
Values joined by “and” are separate entries in the source; they are usually repeats but may differ in a detail not shown here. Equal entries are not always repeated.

Legend:
T. cruzi amastigotes = test: T. cruzi amastigote image-based assay in 3T3 host cells; format: cell-based, Trypanosoma cruzi; details: for T. cruzi amastigote percent inhibition at the highest concentration tested: 40 µM per footnote, given if an IC50 could not be calculated; for IC50: in 3T3 host cells, read-out: T. cruzi amastigote IC50 ± SEM
Procedure: The next step taken was to determine whether the activity of the compounds was confined to P. falciparum, or whether it extended to other protozoan parasites. Compound activity against two members of another clinically important group of parasites, the kinetoplastids T. cruzi and T. b. brucei was determined. The sensitive high content imaging assay used to determine compound activity against T. cruzi assesses the intracellular amastigote life form of the parasite in the 3T3 host cell. It is important to simultaneously assess compound activity against 3T3 cells to determine potential cytotoxicity against the host cell line, since this could result in a false positive outcome. The T. b. brucei assay employs the REDOX indicator Alamar Blue to assess viability, which was developed into a 384-well assay format.
Compound activity against T. cruzi amastigotes was assessed in an image-based assay in single point concentration-response and three biological replicates, at a final highest compound concentration of […], as previously described.

3T3 cells = test: 3T3 host cell cytotoxicity (part of T. cruzi amastigote image-based assay); parameters: species or system mouse; details: bound = highest concentration with < 50 % inhibition; read-out: 3T3 cytotoxicity IC50 ± SEM
From the text: (§1) An initial indication of compound selectivity over human cells had previously been obtained through comparison of the compounds’ IC50 values against P. falciparum asexual stages and HEK293 [22]. In the present study, the selectivity investigation was extended to a small panel of human cancer cell lines, namely the estrogen receptor (ER)-positive breast cancer cell line MCF7, the ER-negative MDA-MB-231, as well as the human prostate cancer line, PC-3. Additionally, the cytotoxic effects on mouse embryonic fibroblast cell line 3T3, which serves as the host cell for T. cruzi in our image-based amastigote assay, were investigated.
(§2) Cytotoxicity of the compounds was assessed against a panel of human cancer cell lines, namely the estrogen receptor (ER)-positive breast cancer cell line MCF7, the ER-negative MDA-MB-231 and the prostate cancer line PC-3. All the cell lines were purchased from ATCC and maintained as previously described. Two biological replicates consisting of two technical replicates each were performed to generate concentration response curves (CRC) with a final highest concentration of 40 μM. A resazurin-based assay was utilized to determine cell viability as described earlier. Additionally, the cytotoxic effects on the mouse embryonic fibroblast cell line 3T3 were assessed as part of the Trypanosoma cruzi amastigote image-based assay as outlined in [35].

MDA-MB-231 cells = test: Resazurin cytotoxicity assay, MDA-MB-231; format: cell-based, human; details: highest concentration 40 μM; bound = highest concentration with < 50 % inhibition; read-out: MDA-MB-231 cytotoxicity IC50 ± SEM
From the text: as §1, §2

PC-3 cells = test: Resazurin cytotoxicity assay, PC-3; format: cell-based, human; details: highest concentration 40 μM; bound = highest concentration with < 50 % inhibition; read-out: PC-3 cytotoxicity IC50 ± SEM
From the text: as §1, §2

[1] = test system: P. falciparum pantothenate kinase (PfPanK); test: Radiometric pantothenate phosphorylation assay in P. falciparum lysate; format: biochemical, Plasmodium falciparum; details: 100 μM single concentration, all compounds (Figure S2a)
Procedure: A radiometric assay, which allows measurement of the phosphorylation of various substrates by kinases present in P. falciparum lysates [16, 39], was used to test the effect of the chemical compounds of interest at 100 μM concentration on PanK activity.
The ability of the test compounds to inhibit P. falciparum pantothenate kinase (PfPanK) was assessed with a radiometric pantothenate phosphorylation assay as described previously [39]. In short, the phosphorylation of [^14C] pantothenate by P. falciparum lysates was measured in the presence or absence of a single concentration (100 μM, two biological replicates in duplicate technical repeats) of each test compound. […] P. falciparum lysate was prepared from trophozoite stage parasites isolated from their host RBC by treatment with 0.05% (w/v) saponin, and washed (three times) in HEPES-buffered saline (125 mM NaCl, 5 mM KCl, 20 mM D-glucose, 25 mM HEPES, 1 mM MgCl2, pH 7.1). Lysates were prepared in 10 mM potassium phosphate, pH 7.4, the concentration of cell lysates was determined from cell counts with an improved Neubauer hemocytometer, and aliquots of lysate were stored at -20 °C.[^14C] pantothenate, [^14C]

[2] = test system: P. falciparum late stage gametocytes (PfLG, stages IV-V); test: Chemical rescue with CoA pathway intermediates, late stage gametocytes; format: cell-based, Plasmodium falciparum; details: inhibitor at IC80; for Percent rescue ± SEM by pantethine, PfLG: pantethine 5 mM; for Percent rescue ± SEM by pantothenate, PfLG: pantothenate 312.5 μM; for Percent rescue ± SEM by CoA, PfLG: CoA 1.8 mM; for Percent rescue ± SEM by dephospho CoA, PfLG: dP-CoA 2 mM
Procedure: (§3) Pantothenate is the first substrate of the pathway (Fig. 1) and its addition was intended to rescue the action of possible competitive inhibitors of the first enzyme, PanK. […] It is not known, whether P. falciparum is capable of pantetheine phosphorylation for utilization in CoA synthesis. […] Finally, the rescue ability of dP-CoA, the final substrate of CoA synthesis, was tested. […] Inhibitors competing with dP-CoA for DPCK binding were expected to be displaced, thereby rescuing parasite survival, by dP-CoA supplementation in a concentration dependent manner.
An imaging based assay was utilised to assess the chemical rescue on asexual stages of P. falciparum as described previously. All the pathway intermediates were purchased from Sigma. CoA and dP-CoA were dissolved in sterile distilled water to obtain a 20 mM stock solution, which was then aliquoted and stored at -20 °C until use. […] Each pathway intermediate was tested on the parasites at a range of concentrations to assess potential toxicity. […] On early stage P. falciparum gametocytes the same concentrations as for CoA were tested for dP-CoA; against asexual blood stage P. falciparum, late stage gametocytes and Trypanosoma b. brucei five dP-CoA concentrations were tested (2 mM, 1.5 mM, 1 mM, 0.75 mM and 0.5 mM).
(§4) The same concentration ranges of the CoA pathway intermediates were supplemented to parasites treated with the experimental compounds. The inhibitors were used at their respective final assay concentration of IC80 (as determined previously in the corresponding P. falciparum development stage or T. b. brucei assay). […] The negative control used in each assay was 0.4% DMSO, whilst the positive control was 2 μM artemisinin for asexual P. falciparum blood stages and 5 μM puromycin for all gametocyte stages and T. b. brucei. The percentage growth of the respective parasites following compound treatment was determined using Microsoft ® Excel 2010, and compared with their controls. All rescue assays were performed as two independent experiments each in duplicate point.

[3] = test system: P. falciparum developmental stages; test: Activity across all P. falciparum life-cycle stages tested (asexual, early and late gametocytes); format: cell-based, Plasmodium falciparum; details: early and late stage gametocytes; for IC50: read-out: IC50 range across all P. falciparum life-cycle stages tested
Procedure: Induction of P. falciparum gametocyte differentiation and gametocyte culturing were performed as previously described. Compound activity against early stage gametocytes (covering the development from stage I to IIb/III) and late stage gametocytes (stage IV to V) of the recombinant P. falciparum line NF54^Pfs16 was assessed in concentration-response assays, in two experimental replicates consisting of two technical repeats each, at a highest concentration of 40 μM, as described earlier.

[4] = test system: P. falciparum asexual blood stage; details: as previously reported; read-out: Asexual P. falciparum IC50 ± SEM; cited from earlier work
[5] = test system: T. b. brucei trypomastigotes; test: Chemical rescue with CoA pathway intermediates, T. b. brucei; format: cell-based, Trypanosoma brucei brucei; details: inhibitor at IC80; for Percent rescue ± SEM by CoA, Tbb: CoA 1.0 mM; for Percent rescue ± SEM by pantethine, Tbb: pantethine 2.44 μM; for Percent rescue ± SEM by pantothenate, Tbb: pantothenate 1.25 mM
Procedure: as §3
An imaging based assay was utilised to assess the chemical rescue on asexual stages of P. falciparum as described previously. All the pathway intermediates were purchased from Sigma. […]
as §4

SMILES | T. cruzi amastigote percent inhibition at the highest concentration tested (T. cruzi amastigotes) | IC50 (3T3 cells) | IC50 (MDA-MB-231 cells) | IC50 (PC-3 cells) | PanK inhibition [1] | Percent rescue ± SEM by pantethine, PfLG [2] | Percent rescue ± SEM by pantothenate, PfLG [2] | activity against all P. falciparum development stages tested (in words) [3] | IC50 [3] | IC50 [4] | IC50 (T. cruzi amastigotes) | Percent rescue ± SEM by CoA, Tbb [5] | Percent rescue ± SEM by dephospho CoA, Tbb ([5]; dP-CoA 1.6 mM) | Percent rescue ± SEM by pantethine, Tbb [5] | Percent rescue ± SEM by pantothenate, Tbb [5] | Percent rescue ± SEM by CoA, PfLG [2] | Percent rescue ± SEM by CoA, PfLG ([2]; listed as STK740987) | Percent rescue ± SEM by dephospho CoA, PfLG [2] | Percent rescue ± SEM by dephospho CoA, PfLG ([2]; listed as STK740987)
Cc1csc(Sc2ncnc3sccc23)n1 [Amb180780] | 21% | > 40000 nM | > 40000 nM | > 40000 nM | did not reveal inhibition of PanK | No | No | sub-micromolar IC50 values | 60 to 120 nM | 120 ± 20 nM |  |  |  |  |  |  |  |  | 
CC(=O)c1ccc2c3c(onc13)-c1ccccc1C2=O [Amb3377585] |  |  | 5600 ± 330 nM | 5500 ± 640 nM |  |  |  |  |  | 150 ± 10 nM | 13300 ± 2350 nM | 95.0 ± 4.2% | 100.4 ± 1.4% | No | 34.2 ± 1.3% and 34 ± 1% |  |  |  | 
CC(=O)C1=C(c2ccccc2)C(=O)c2ccccc2C1=O [Amb4317088] |  | 8600 ± 960 nM | 870 ± 40 nM | 1400 ± 60 nM |  | No | No | moderate, single digit micromolar activity |  | 1230 ± 60 nM | 4300 ± 270 nM | 85.0 ± 6.9% |  | No | No |  |  |  | 
CC1=CC(=O)C(C(C)C)=C/C1=N/OS(=O)(=O)c1ccccc1 [STK 740987] | 54% | > 20000 nM | > 40000 nM | > 20000 nM |  | No | No | sub-micromolar IC50 values | 380 to 460 nM | 380 ± 60 nM |  | 69.6 ± 10.6% |  | No | No | 53.1 ± 0.5% | approximately 50% | 50.3 ± 0.8% | approximately 50%
